Patent US12358922B1, “Berberine alpha-ketoglutarate salt, crystalline form, methods of preparation and applications thereof” (priority 2024, dated 2025)

Assays:
[1] = Solubility measurement of berberine salts in water (Example 3); conditions: room temperature (about 20° C.)
[2] = cited from earlier work

For berberine hemi-sulfate, the “solubility in water at room temperature” value [1] was over 20 mg/mL.

In the case of `COc1ccc2cc3[n+](cc2c1OC)CCc1cc2c(cc1-3)OCO2` [berberine chloride, berberine chloride dihydrate], the loss of water ([2]; elevated temperature or low humidity environment) is given as “more than 8%” and the uptake of water ([2]; in water or a high humidity environment, converts to tetrahydrate form) is given as “about 8%”.
